Data as given in patent publication US12590062B2, “PD-1/PD-L1 inhibitors” (Gilead Sciences, Inc., priority 2017, dated 2026).

Legend:
PD-1/PD-L1 interaction = biological target: T1, PD-1/PD-L1 interaction (Homo sapiens, UniProt Q9NZQ7); experiment: PD-1/PD-L1 NFAT reporter co-culture assay; assay type: cell-based; details: Jurkat PD-1 NFAT-luciferase cells co-cultured with aAPC-PD-L1 CHO cells, 6 hrs at 37° C.; read-out: EC50 NFAT Luciferase
T1 construct: expressed in transfected cells; host or cells: CHO cells (aAPC-PD-L1) co-cultured with Jurkat cells overexpressing PD-1 and an NFAT-luciferase reporter
Summary of the method: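 Jurkat cells overexpressing PD-1 with NFAT-luciferase mixed with compounds and plated onto CHO aAPCs expressing anti-CD3 and PD-L1, RPMI with 2% FBS. Co-culture 6 h at 37 °C; luminescence read with ONE-Glo. EC50 from four-parameter fit.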

[1] = biological target: T2, interaction between the recombinant extracellular domain (ECD) of PD-1 and native cell-bound PD-L1 (Homo sapiens, UniProt Q9NZQ7); experiment: CHO/PD-L1 cell capture assay; assay type: cell-based; details: CHO cells overexpressing PD-L1, pre-incubated 1 hr with compound, captured on biotinylated Fc-PD-1 coated plates, 75 min at room temperature
T2 construct: expressed in transfected cells
Experimental: EC50-CHO/PD-L1-Capture Assay:
Compounds were tested in a cell capture assay to determine if they can specifically block the interaction between the recombinant extracellular domain (ECD) of PD-1 and native cell-bound PD-L1. Binding affinity of stable CHO cells overexpressing PD-L1 with its cognate recombinant ligand coated on plates was measured by counting the number of ‘captured’ cells. High-capacity streptavidin- coated plates were incubated with biotylated-Fc-PD-1 for 2 hours in PBS. Unbound ligand was washed out. CHO-PD-L1 cells (resuspended in PBS pH 7.4, 0.5 mM EDTA, and 2% bovine serum albumin) were pre-incubated for 1 hr with compound, dispensed into each PD-1 ECD coated well and then incubated for 75 min at room temperature. To stop the capture assay, a fixative/staining solution (final concentrations are 1.3% glutaraldehyde and 1.67 μM Draq5) was gently added to the cells and incubated for 2 hrs at room temperature. Unbound cells were then washed out and ‘captured’ cells were enumerated using a high-content microscopy system. EC50 values were calculated from the fit of the dose-response curves to a four-parameter equation. Representative data are shown below in Table 2.

T2 sequence (Q9NZQ7 19-290): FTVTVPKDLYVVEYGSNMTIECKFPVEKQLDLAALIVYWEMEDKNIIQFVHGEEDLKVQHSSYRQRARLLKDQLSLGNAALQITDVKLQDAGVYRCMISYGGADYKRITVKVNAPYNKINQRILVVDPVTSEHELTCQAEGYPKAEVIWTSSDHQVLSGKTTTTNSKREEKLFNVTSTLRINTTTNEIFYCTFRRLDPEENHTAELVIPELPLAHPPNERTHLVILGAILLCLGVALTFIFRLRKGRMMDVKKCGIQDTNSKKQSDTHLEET
T1 sequence (Q9NZQ7 19-290): as above

Row | SMILES | EC50 (PD-1/PD-L1 interaction) | EC50 [1]
1 | COc1nc(OCc2cccc(-c3cccc(COc4nc(OC)c(C[N+](C)(C)CC(=O)O)cc4Cl)c3C)c2C)c(Cl)cc1C[N+](C)(C)CC(=O)O [Example 78, 1,1′-((((2,2′-dimethyl-[1,1′-biphenyl]-3,3′-diyl)bis(methylene))bis(oxy))bis(5-chloro-2-methoxypyridine-6,3-diyl))bis(N-(carboxymethyl)-N,N-dimethylmethanaminium)] | 395 nM | 187 nM
2 | Cc1c(COc2cc(OCc3cncc(C#N)c3)c(CNC[C@@H](O)CC(=O)O)cc2Cl)cccc1-c1cccc(-c2ccc(OCCNC[C@@H](O)CC(=O)O)c(C(F)(F)F)c2)c1C [Example 94, (S)-4-((4-((4″-(2-(((S)-3-carboxy-2-hydroxypropyl)amino)ethoxy)-2,2′-dimethyl-3″-(trifluoromethyl)-[1,1′:3′,1″-terphenyl]-3-yl)methoxy)-5-chloro-2-((5-cyanopyridin-3-yl)methoxy)benzyl)amino)-3-hydroxybutanoic acid] | 210 nM | 228 nM
3 | Cc1c(COc2cc(OCc3cncc(C#N)c3)c(CNC[C@@H](O)CC(=O)O)cc2Cl)cccc1-c1cccc(-c2ccc(OCCNC[C@@H](O)CC(=O)O)cc2F)c1C [Example 111, (S)-4-((4-((4″-(2-(((S)-3-carboxy-2-hydroxypropyl)amino)ethoxy)-2″-fluoro-2,2′-dimethyl-[1,1′:3′,1″-terphenyl]-3-yl)methoxy)-5-chloro-2-((5-cyanopyridin-3-yl)methoxy)benzyl)amino)-3-hydroxybutanoic acid] | 129 nM | 45.7 nM
4 | COc1nc(OCc2cccc(-c3cccc(COc4nc(OC)c(CNCCCC(N)=O)cc4Br)c3C)c2C)c(Br)cc1CNCCCC(N)=O [Example 116, 4,4′-((((((2,2′-dimethyl-[1,1′-biphenyl]-3,3′-diyl)bis(methylene))bis(oxy))bis(5-bromo-2-methoxypyridine-6,3-diyl))bis(methylene))bis(azanediyl))dibutanamide] | 702 nM | 134 nM
5 | COc1nc(OCc2cccc(-c3cccc(COc4nc(OC)c(CN(CCCC(N)=O)CC(=O)O)cc4Br)c3C)c2C)c(Br)cc1CNCCCC(N)=O [Example 118, N-(4-amino-4-oxobutyl)-N-((6-((3′-(((5-(((4-amino-4-oxobutyl)amino)methyl)-3-bromo-6-methoxypyridin-2-yl)oxy)methyl)-2,2′-dimethyl-[1,1′-biphenyl]-3-yl)methoxy)-5-bromo-2-methoxypyridin-3-yl)methyl)glycine] | 823 nM | 169 nM
6 | Cc1c(COc2nc(OCc3cc(C#N)cc(C#N)c3)c(CNC[C@@H](O)CC(=O)O)cc2Cl)cccc1-c1cccc(COc2nc(OCc3cc(C#N)cc(C#N)c3)c(CNC[C@@H](O)CC(=O)O)cc2Cl)c1C [Example 122, (3S,3′S)-4,4′-((((((2,2′-dimethyl-[1,1′-biphenyl]-3,3′-diyl)bis(methylene))bis(oxy))bis(5-chloro-2-((3,5-dicyanobenzyl)oxy)pyridine-6,3-diyl))bis(methylene))bis(azanediyl))bis(3-hydroxybutanoic acid)] | 79 nM | 192 nM
7 | Cc1c(COc2nc(OCC3CCO3)c(CNC[C@@H](O)CC(=O)O)cc2Br)cccc1-c1cccc(COc2nc(OCC3CCO3)c(CNC[C@@H](O)CC(=O)O)cc2Br)c1C (stereo partly drawn) [Example 131, (3S,3′S)-4,4′-((((((2,2′-dimethyl-[1,1′-biphenyl]-3,3′-diyl)bis(methylene))bis(oxy))bis(5-bromo-2-(oxetan-2-ylmethoxy)pyridine-6,3-diyl))bis(methylene))bis(azanediyl))bis(3-hydroxybutanoic acid)] | 964 nM | 231 nM
8 | CNC(=O)CCOc1nc(OCc2cccc(-c3cccc(COc4nc(OCCC(=O)NC)c(CNC[C@@H](O)CC(=O)O)cc4Cl)c3C)c2C)c(Cl)cc1CNC[C@@H](O)CC(=O)O [Example 134, (3S,3′S)-4,4′-((((((2,2′-dimethyl-[1,1′-biphenyl]-3,3′-diyl)bis(methylene))bis(oxy))bis(5-chloro-2-(3-(methylamino)-3-oxopropoxy)pyridine-6,3-diyl))bis(methylene))bis(azanediyl))bis(3-hydroxybutanoic acid)] | 660 nM | 112 nM
9 | Cc1c(COc2nc(OCCC(N)=O)c(CNC[C@@H](O)CC(=O)O)cc2Br)cccc1-c1cccc(COc2nc(OCCC(N)=O)c(CNC[C@@H](O)CC(=O)O)cc2Br)c1C [Example 145, (3S,3′S)-4,4′-((((((2,2′-dimethyl-[1,1′-biphenyl]-3,3′-diyl)bis(methylene))bis(oxy))bis(2-(3-amino-3-oxopropoxy)-5-bromopyridine-6,3-diyl))bis(methylene))bis(azanediyl))bis(3-hydroxybutanoic acid)] | 362 nM | 63.6 nM
10 | Cc1c(COc2nc(OCc3cc(C#N)ccn3)c(CNC[C@@H](O)CC(=O)O)cc2Br)cccc1-c1cccc(COc2nc(OCc3cc(C#N)ccn3)c(CNC[C@@H](O)CC(=O)O)cc2Br)c1C [Example 148, (3S,3′S)-4,4′-((((((2,2′-dimethyl-[1,1′-biphenyl]-3,3′-diyl)bis(methylene))bis(oxy))bis(5-bromo-2-((4-cyanopyridin-2-yl)methoxy)pyridine-6,3-diyl))bis(methylene))bis(azanediyl))bis(3-hydroxybutanoic acid)] | 124 nM | 132 nM
11 | COCCCOc1nc(OCc2cccc(-c3cccc(COc4nc(OCCCOC)c(CNC[C@@H](O)CC(=O)O)cc4Br)c3C)c2C)c(Br)cc1CNC[C@@H](O)CC(=O)O [Example 149, (3S,3′S)-4,4′-((((((2,2′-dimethyl-[1,1′-biphenyl]-3,3′-diyl)bis(methylene))bis(oxy))bis(5-bromo-2-(3-methoxypropoxy)pyridine-6,3-diyl))bis(methylene))bis(azanediyl))bis(3-hydroxybutanoic acid)] | 668 nM | 275 nM
12 | COc1nc(OCc2cccc(-c3cccc(COc4nc(OC)c(CNC[C@@H](F)C(=O)O)cc4Cl)c3C)c2C)c(Cl)cc1CNC[C@@H](F)C(=O)O [Example 179, (2R,2′R)-3,3′-((((((2,2′-dimethyl-[1,1′-biphenyl]-3,3′-diyl)bis(methylene))bis(oxy))bis(5-chloro-2-methoxypyridine-6,3-diyl))bis(methylene))bis(azanediyl))bis(2-fluoropropanoic acid)] | 655 nM | 319 nM
13 | COc1nc(OCc2cccc(-c3cccc(COc4nc(OC)c(CN[C@H](C)[C@@H](O)CC(=O)O)cc4Cl)c3C)c2C)c(Cl)cc1CN[C@H](C)[C@@H](O)CC(=O)O [Example 182, (3S,3′S,4R,4′R)-4,4′-((((((2,2′-dimethyl-[1,1′-biphenyl]-3,3′-diyl)bis(methylene))bis(oxy))bis(5-chloro-2-methoxypyridine-6,3-diyl))bis(methylene))bis(azanediyl))bis(3-hydroxypentanoic acid)] | 439 nM | 91.4 nM
14 | COc1nc(OCc2cccc(-c3cccc(COc4nc(OC)c(CN[C@@H]5CC[C@H](C(=O)O)C5)cc4Cl)c3C)c2C)c(Cl)cc1CN[C@@H]1CC[C@H](C(=O)O)C1 [Example 185, (1S,1′S,3R,3′R)-3,3′-((((((2,2′-dimethyl-[1,1′-biphenyl]-3,3′-diyl)bis(methylene))bis(oxy))bis(5-chloro-2-methoxypyridine-6,3-diyl))bis(methylene))bis(azanediyl))bis(cyclopentane-1-carboxylic acid)] | 195 nM | 277 nM
15 | C[C@](CO)(NCc1cc(Br)c(OCc2cccc(-c3cccc(COc4nc(OCc5cncc(C#N)c5)c(CN[C@](C)(CO)C(=O)O)cc4Br)c3Cl)c2Cl)nc1OCc1cncc(C#N)c1)C(=O)O [Example 198, (2R,2′R)-2,2′-((((((2,2′-Dichloro-[1,1′-biphenyl]-3,3′-diyl)bis(methylene))bis(oxy))bis(5-bromo-2-((5-cyanopyridin-3-yl)methoxy)pyridine-6,3-diyl))bis(methylene))bis(azanediyl))bis(3-hydroxy-2-methylpropanoic acid)] | 69 nM | 101 nM
16 | COc1cc(OCc2cccc(-c3cccc(COc4cc(OCc5cncc(C#N)c5)c(CNC[C@H](O)C(=O)O)cc4Cl)c3C)c2C)c(Cl)cc1CNC[C@H](O)C(=O)O [Example 216, (S)-3-((4-((3′-((4-((((S)-2-carboxy-2-hydroxyethyl)amino)methyl)-2-chloro-5-((5-cyanopyridin-3-yl)methoxy)phenoxy)methyl)-2,2′-dimethyl-[1,1′-biphenyl]-3-yl)methoxy)-5-chloro-2-methoxybenzyl)amino)-2-hydroxypropanoic acid] | 514 nM | 206 nM
17 | COc1cc(OCc2cccc(-c3cccc(COc4cc(OCc5cncc(C#N)c5)c(CNCC(=O)O)cc4Cl)c3C)c2C)c(Cl)cc1CNCC(=O)O [Example 217, (4-((3′-((4-(((carboxymethyl)amino)methyl)-2-chloro-5-((5-cyanopyridin-3-yl)methoxy)phenoxy)methyl)-2,2′-dimethyl-[1,1′-biphenyl]-3-yl)methoxy)-5-chloro-2-methoxybenzyl)glycine] | 589 nM | 71.6 nM
